The record followed here is patent publication US11793222B2, “Solutions and dispersions of amide compounds” (Firmenich SA, priority 2016, dated 2023).

Data set [1] is described as follows: Dissolution kinetics in water at 60° C., followed by UV/Vis spectroscopy (absorbance at 310 nm). Type of data set: physicochemical. The method, then: The dissolution process was followed on-line by monitoring the UV signal of dissolved (E)-3-(3,4-dimethoxyphenyl)-N-(4-methoxyphenethyl)acrylamide with UV/Vis spectroscopy (measuring absorbance at 310 nm). The dissolution process yielded 50% of the target concentration of 20 ppm of (E)-3-(3,4-dimethoxyphenyl)-N-(4-methoxyphenethyl)acrylamide (10 ppm) after 1.5 minutes, and 95% (19 ppm) after 17 minutes.
20 mg of (E)-3-(3,4-dimethoxyphenyl)-N-(4-methoxyphenethyl)acrylamide were dispersed in 1 L of water at 60° C. The dissolution process yielded 50% of the target concentration of 20 ppm (10 ppm) after 78 minutes (factor 50 slower compared to example 1). 95% (19 ppm) of the target concentration could not be achieved after 6 hours. The concentration of dissolved (E)-3-(3,4-dimethoxyphenyl)-N-(4-methoxyphenethyl)acrylamide after 6 hours was 15 ppm (75% of target).
1.8 g of (E)-3-(3,4-dimethoxyphenyl)-N-(4-methoxyphenethyl)acrylamide and 1.8 g betaine were mixed with 116 g of a mixture of ethanol and water (50:50 w/w). The dispersion was heated to 60° C. until complete dissolution of the solid material. The solution was kept at 60° C., spray dried, and a fine, white powder was obtained. […] The dissolution process yielded 50% of the target concentration of 20 ppm of (E)-3-(3,4-dimethoxyphenyl)-N-(4-methoxyphenethyl)acrylamide (10 ppm) after 2.5 minutes, and 95% (19 ppm) after 29 minutes.

The test system of data set [2] is trained panelists. The experiment in a line: Evaluation of the umami effect in hot water by trained panelists. Type of data set: in vivo. Particulars: 20 ppm compound or 40 ppm solid dispersion (50:50 w/w), 4 trained panelists, blind, after 5 minutes. The method, then: (§1) The solutions were presented to 4 trained panelists on a blind test basis after 5 minutes. They were asked to rate the samples for the umami taste intensity from 0 to 10 (0 denoted no umami effect, and 10 denoted very strong umami taste). The sample according to the invention was rated higher in umami intensity (5.0) than the comparative sample (3.8).

The test system of data set [3] is trained panelists. The experiment in a line: Evaluation of the umami effect in cold water by trained panelists. The data set is classed as in vivo. The following applies: cold water (room temperature); 20 ppm compound or 40 ppm solid dispersion (50:50 w/w); 4 trained panelists, blind, after 5 minutes. The protocol:
as §1
The solutions were presented to 4 trained panelists on a blind test basis after 5 minutes. The sample according to the invention was rated higher in umami intensity (3.4) than the comparative sample (2.5).

For data set [4], the system named is trained panelists. As to the kind of experiment: Evaluation of the umami effect in hot chicken bouillon by trained panelists. The data set is classed as in vivo. The following applies: 20 ppm compound or 40 ppm solid dispersion (50:50 w/w), 4 trained panelists, blind, after 5 minutes. The protocol: as §1
The bouillons were presented to 4 trained panelists on a blind test basis after 5 minutes. The sample according to the invention was rated higher in umami intensity (6.5) than the comparative sample (5.5).

In the case of `COc1ccc(CCNC(=O)/C=C/c2ccc(OC)c(OC)c2)cc1` [(E)-3-(3,4-dimethoxyphenyl)-N-(4-methoxyphenethyl)acrylamide], the “time until 95% (19 ppm) of the target concentration (could not be achieved)” value in data set [1] (20 mg in 1 L of water at 60° C.) was more than 6 h. Moreover, the “concentration of dissolved compound after 6 hours” value in data set [1] (20 mg in 1 L of water at 60° C., after 6 hours) was found to be 15 ppm. Also, in data set [1] (20 mg in 1 L of water at 60° C., after 6 hours, target 20 ppm), the “dissolved compound after 6 hours as % of target” value is reported as 75%. Further, in data set [1] (1 L of water at 60° C., target 20 ppm of the amide), the “time until dissolution yielded 50% of the target concentration of 20 ppm (10 ppm)” value amounted to 78 min. The “factor slower compared to example 1 (time to 50% of target concentration)” value in data set [1] (water at 60° C.) is recorded as 50. In addition, in the data set on trained panelists [2], the “umami taste intensity rating from 0 to 10” value came out at 3.8. The umami intensity rating was found to be 2.5 in the data set on trained panelists [3] and 5.5 in the data set on trained panelists [4].
